Assay results taken from patent publication US20210380951A1, “RNA-BASED METHODS TO LAUNCH HEPATITIS B VIRUS INFECTION” (priority 2018, published 2021).
Counter-ions that a name gives are not always drawn.

Tests used:
WT HBV = experiment: RNA launch method: inhibition of HBV replication from transfected pgRNA, read out as percent HBsAg (CLIA); type: cell-based; conditions: HBsAg with vs without inhibitor, FIG. 4
Method: The inhibitory effect of three reverse-transcriptase inhibitors, Entecavir (ETV), Tenofovir Disoproxil Fumarate (TDF), and Lamivudine (LAM) on WT HBV was compared. The inhibitory effect of LAM on the HBV viral variant M204V was also measured. The inhibition by the reverse-transcriptase inhibitors was determined as percent HBsAg by comparing the level of HBsAg in the presence and absence of the inhibitors.
HepG2-NTCP or Huh-7.5-NTCP cells were seeded at 2.5×10^5 cells per well in six-well plates two days before transfection. The media was changed to 2 ml DMEM containing 1.5% FBS and 0.1 mM NEAA just before transfection. […]
HBeAg and HBsAg were quantified using a chemiluminescence immunoassay (CLIA) kit (Autobio Diagnostics Co., Zhengzhou, China) according to the manufacturer's instructions. To quantify HBV DNA, total DNA was extracted from infected or RNA-transfected cells using QIAamp DNA Blood Mini Kit (Qiagen, cat. #51106) and HBV DNA was detected by qPCR as previously described (Michalidis et al., Sci Rep. 2017, November 30:7(1):16616). For each experiment, cells were transfected with T7-RFP as a negative control and DNA quantified from these cells was used to define the background. […]

chronic HBV = conditions: chronically infected patients, injectable; cited from earlier work

Row | Molecule | inhibitory effect on WT HBV (HBV replication, percent HBsAg) (WT HBV) | success rate of curing chronic HBV (chronic HBV)
1 | C=C1[C@H](CO)[C@@H](O)C[C@@H]1n1cnc2c(=O)[nH]c(N)nc21 [Entecavir] | inhibited HBV replication in a dose-dependent manner | –
2 | CC(C)OC(=O)OCOP(=O)(CO[C@H](C)Cn1cnc2c(N)ncnc21)OCOC(=O)OC(C)C [Tenofovir Disoproxil Fumarate] | inhibited HBV replication in a dose-dependent manner | –
3 | interferon alpha [IFNα] | – | ~10%
